Assay results from patent publication US7868026B2, “Therapeutic compounds” (Pfizer Inc., priority 2005, dated 2011).
Where two headings read alike, the source gives them in different places.

Legend:
Type in all cases: biochemical
CYP3A4 [1] = target: T1, CYP3A4 (Homo sapiens, UniProt P08684); assay: Determination of compound Kiapp against recombinant CYP3A4 enzyme (BFC fluorescent substrate)
How it was run: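 Kiapp derived from initial velocities over the first 5 min of BFC (5 uM) oxidation, using Morrison's tight-binding equation for non-partial and Szedlacsek's for partial inhibitors. Inhibitor first pre-incubated ≥30 min with CYP3A4 (5.5 or 8 nM, ±b5) in pH 7.0 phosphate/TCEP/2% DMF at room temperature; 200 uM NADPH initiated.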

CYP3A4 [2] = target: T1, CYP3A4; assay: Determination of IC50 against CYP3A4 by measurement of inhibition of midazolam metabolism (human liver microsomes, 1-hydroxymidazolam by LC-MS/MS); design: 0.1 mg/mL human liver microsomes; settings: 2 μM midazolam, 0.1 mg/mL human liver microsomes
How it was run: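 Human liver microsomes (0.1 mg/mL) incubated 8 min with 2 μM midazolam and 1 mM NADPH in 100 mM potassium phosphate, pH 7.4. 1-Hydroxymidazolam quantified by LC-MS/MS (MRM) as peak area ratio to internal standard against a metabolite standard curve.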

CYP3A4 [3] = target: T1, CYP3A4; assay: Determination of IC50 against CYP3A4 by measurement of inhibition of testosterone metabolism (human liver microsomes, 6-β-OH-testosterone by LC-MS/MS); design: 0.1 mg/mL human liver microsomes; settings: read-out: IC50 (Testo.)
How it was run: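 6-β-OH-testosterone formation was read by LC-MS/MS (MRM, internal standard, standard curve) after eight minutes. Reaction contained testosterone 25 μM, NADPH 1 mM and microsomal protein 0.1 mg/mL in pH 7.4 potassium phosphate (100 mM).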

[4] = Baculo. enzyme preparation, read-out: Kiapp (BFC, Baculo.)
[5] = Super. enzyme preparation, read-out: Kiapp (BFC, Super.)

T1 sequence (P08684 whole entry): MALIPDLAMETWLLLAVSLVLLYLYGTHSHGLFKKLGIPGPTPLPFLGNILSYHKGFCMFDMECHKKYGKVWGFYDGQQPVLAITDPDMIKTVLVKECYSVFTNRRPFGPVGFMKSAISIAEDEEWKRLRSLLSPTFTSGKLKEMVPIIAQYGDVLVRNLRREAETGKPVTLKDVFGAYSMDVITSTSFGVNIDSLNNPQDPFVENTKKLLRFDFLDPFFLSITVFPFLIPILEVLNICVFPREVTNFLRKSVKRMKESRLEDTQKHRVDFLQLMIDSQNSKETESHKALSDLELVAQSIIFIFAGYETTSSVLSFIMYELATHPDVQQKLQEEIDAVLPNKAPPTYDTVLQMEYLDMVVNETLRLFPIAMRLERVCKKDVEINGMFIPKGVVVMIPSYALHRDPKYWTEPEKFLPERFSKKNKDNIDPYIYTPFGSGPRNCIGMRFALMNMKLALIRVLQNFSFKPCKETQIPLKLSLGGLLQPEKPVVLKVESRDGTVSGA

Ki (CYP3A4 [1]; [4]) [nM]	Ki (CYP3A4 [1]; [5]) [nM]	IC50 (CYP3A4 [2]) [nM]	IC50 (CYP3A4 [3]) [nM]	SMILES
23.7	2.7	7	7	COc1cncc(NS(=O)(=O)c2ccccc2C(=O)NCc2cccc(Cl)c2)c1 [Example 192, N-(3-chlorobenzyl)-2-{[(5-methoxypyridin-3-yl)amino]sulfonyl}benzamide]
505	20.1	68	263	COC[C@H](C)NC(=O)c1ccccc1S(=O)(=O)Nc1cncc(OC)c1 [Example 382, N-[(1S)-2-methoxy-1-methylethyl]-2-{[(5-methoxypyridin-3-yl)amino]sulfonyl}benzamide]
352	39.8	22	52	CCOc1ccncc1NS(=O)(=O)c1ccccc1C(=O)NC(C)C1CC1 (stereo not shown) [Example 270, N-(1-cyclopropylethyl)-2-{[(4-ethoxypyridin-3-yl)amino]sulfonyl}benzamide]
4.3	7.2	10	11	Cc1cncc(NS(=O)(=O)c2ccccc2C(=O)NCCc2ccccc2C)c1 [Example 319, N-[2-(2-methylphenyl)ethyl]-2-{[(5-methylpyridin-3-yl)amino]sulfonyl}benzamide]
79	18	15	23	COc1cncc(NS(=O)(=O)c2ccccc2C(=O)N(C)Cc2ccccc2)c1 [Example 372, N-benzyl-2-{[(5-methoxypyridin-3-yl)amino]sulfonyl}-N-methylbenzamide]
41.7	16.6	< 3	10	COc1cncc(NS(=O)(=O)c2ccccc2C(=O)N(C)Cc2ccccc2F)c1 [Example 198, N-(2-fluorobenzyl)-2-{[(5-methoxypyridin-3-yl)amino]sulfonyl}-N-methylbenzamide]
486	30.3	62.8	83.4	CC1CCN(C(=O)c2ccccc2S(=O)(=O)Nc2cccnc2)CC1 [Example 41, 2-[(4-methylpiperidin-1-yl)carbonyl]-N-pyridin-3-ylbenzenesulfonamide]
338	92.2	41	44	CCCCCNC(=O)c1ccccc1S(=O)(=O)N(C)c1cccnc1 [Example 340, 2-{[methyl(pyridin-3-yl)amino]sulfonyl}-N-pentylbenzamide]
245	5.1	29	< 3	O=C(NCc1cccc(OC(F)F)c1)c1ccccc1S(=O)(=O)Nc1cccnc1 [Example 71, N-[3-(difluoromethoxy)benzyl]-2-[(pyridin-3-ylamino)sulfonyl]benzamide]
262	27.1	5	19	COc1cncc(NS(=O)(=O)c2ccccc2C(=O)NCc2ccc3c(c2)CCO3)c1 [Example 153, N-(2,3-dihydro-1-benzofuran-5-ylmethyl)-2-{[(5-methoxypyridin-3-yl)amino]sulfonyl}benzamide]
2.2	3.08	12	18	CCOc1cncc(NS(=O)(=O)c2ccccc2C(=O)NCc2ccc(F)c(C(F)(F)F)c2)c1 [Example 288, 2-{[(5-ethoxypyridin-3-yl)amino]sulfonyl}-N-[4-fluoro-3-(trifluoromethyl)benzyl]benzamide]
33.6	7.9	4	19	COc1cncc(NS(=O)(=O)c2ccccc2C(=O)NC(C(C)C)C(C)C)c1 [Example 211, N-(1-isopropyl-2-methylpropyl)-2-{[(5-methoxypyridin-3-yl)amino]sulfonyl}benzamide]
144	51.6	15	19	Cc1cncc(NS(=O)(=O)c2ccccc2C(=O)NC(C)C(C)C)c1 (stereo not shown) [Example 317, N-(1,2-dimethylpropyl)2{[(5-methylpyridin-3-yl)amino]sulfonyl}benzamide]
